Source: patent US12419875B2, “Use of Axitinib and analogs thereof in preparing blood-brain barrier permeability regulator” (ZHEJIANG UNIVERSITY, priority 2018, dated 2025)

Columns and labels:
Claudin-5 = assay: VEGF-stimulated physiological blood-brain barrier Transwell model, Claudin-5 immunofluorescence; assay type: cell-based; settings: bEnd.3 Transwell, exogenous VEGF plus Axitinib 0, 2, 4 μg/mL, 24 hours; FIG. 7
Protocol: A Transwell model of brain microvascular endothelial cells bEnd.3 simulates a physiological blood-brain barrier. Transwell chambers were stimulated with the added exogenous vascular endothelial growth factor (VEGF), and further with Axitinib at different concentrations (0, 2 μg/mL, 4 μg/mL) synergistically for 24 hours. Thereafter, Immunofluorescence staining was performed on bEnd.3 cells on the Transwell chamber membrane. […] Panel B is the result of fluorescence semi-quantitative analysis of Claudin-5 expression by Image J (n=3).
Brain microvascular endothelial cells bEnd.3 were used as model cells of a blood-brain barrier. 0.5 mL suspension of well-grown bEnd.3 cells was inoculated in the chamber of a 12-well Transwell plate with a pore size of 0.4 μm at a cell density of 1×10^5/well. 1.5 mL of fresh culture medium was supplemented in the outer chamber. The culture medium was refreshed every other day. Incubation was continued for 15 days at 37° C. and 5% CO2. When the cell transmembrane resistance value was greater than 150 ohm·cm^2 (Ω·cm^2), a cell model of physiological blood-brain barrier was obtained for evaluation.
The physiological blood-brain barrier as constructed by Method 1 in the Example 1 was used as a model. Exogenous vascular endothelial cell growth factor (VEGF) and Axitinib at different concentrations were added to the Transwell chamber. […]

tyrosine hydroxylase = assay: Striatum tyrosine hydroxylase immunohistochemistry, model of Parkinson's disease; settings: FIG. 29
Claudin-5/Occludin = assay: Tumor cell culture co-incubated with bEnd.3 cells (U87MG removed), Claudin-5/Occludin immunofluorescence; assay type: cell-based; settings: tumor cell culture kept, 10 μM, 24 hours, FIG. 17
Protocol: FIG. 17: Co-incubation of a tumor cell culture and bEnd.3 cells in vitro, and immunofluorescent staining of a blood-brain barrier tight junction protein of Claudin-5/Occludin. A Transwell model of co-incubation of brain microvascular endothelial cells bEnd.3 and glioma cells U87 MG simulates a pathological blood-brain barrier. Once a pathological blood-brain barrier model was formed, U87MG glioma cells in the outer chamber of Transwell were removed, while the tumor cell cultures were remained. Axitinib (10 μM) and an Axitinib analog of phosphatidylinositol kinase (PI3K) inhibitor LY294002 (10 μM) were added to the Transwell chamber. After 24 hours, immunofluorescent staining was performed on bEnd.3 cells on the Transwell chamber membrane. A physiological blood-brain barrier simulated by a Transwell model of brain microvascular endothelial cell bEnd.3 was used as a positive control.
The physiological blood-brain barrier and the pathological blood-brain barrier as constructed in Method 1 and Method 2 in the Example 1 were used as models, respectively. Once a pathological blood-brain barrier model was formed, U87MG glioma cells in the outer chamber of Transwell were removed, while the tumor cell cultures were remained. Axitinib (10 μM) and an Axitinib analog of phosphatidylinositol kinase (PI3K) inhibitor LY294002 (10 μM) were added to the Transwell chamber. […]

[1] = system: model of Parkinson's disease; assay: Movement time within 2 minutes, model of Parkinson's disease; assay type: in vivo, C57/BL6 mice; settings: FIG. 28
Protocol: After the treatment was accomplished, movement time within 2 minutes (walking, lifting of both forelimbs, washing face, hair grooming and the like) was recorded for each of the test groups (n=5).
After the Axitinib treatment and the levodopa treatment was accomplished, movement time within 2 minutes (walking, lifting of both forelimbs, washing face, hair grooming and the like) was recorded for each of the test groups.

[2] = system: pathological blood-brain barrier (bEnd.3 cells with tumor cell culture); assay: Tumor cell culture co-incubated with bEnd.3 cells (U87MG removed), FITC-dextran transmembrane transport; assay type: cell-based; settings: tumor cell culture kept, 10 μM, 24 hours, FIG. 16
Protocol: FIG. 16: Co-incubation of a tumor cell culture and bEnd.3 cells in vitro, and FITC-dextran transmembrane transport efficiency. A Transwell model of co-incubation of brain microvascular endothelial cells bEnd.3 and glioma cells U87 MG simulates a pathological blood-brain barrier. Once a pathological blood-brain barrier model was formed, U87MG glioma cells in the outer chamber of Transwell were removed, while the tumor cell cultures were remained. Axitinib (10 μM) and an Axitinib analog of phosphatidylinositol kinase (PI3K) inhibitor LY294002 (10 μM) were added to the Transwell chamber. After 24 hours, the Transwell chamber and the outer chamber were cleaned with PBS, and a FITC-dextran solution in HBSS was added to the Transwell chamber, and was allowed to act for 4 hours. The result as shown in the figure was the FITC-dextran concentration of the Transwell outer chamber as detected by a fluorescence spectrophotometer. […]
The physiological blood-brain barrier and the pathological blood-brain barrier as constructed in Method 1 and Method 2 in the Example 1 were used as models, respectively. […] After the cells were incubated at 37° C. in the dark for 4 hours, concentration of FITC-dextran transferred to the outer chamber via the Transwell chamber was detected with a fluorescence spectrophotometer.

[3] = Axitinib 10 mg/kg 7 days vs levodopa 20 mg/kg 10 days

## CNC(=O)c1ccccc1Sc1ccc2c(/C=C/c3ccccn3)n[nH]c2c1 [Axitinib, N-methyl-2-((3-((1E)-2-(pyridine-2-yl)ethenyl)-1H-indazol-6-yl)sulfanyl)benzamide]
Claudin-5
  Expression of tight junction protein Claudin-5: reduce the degree to which Claudin-5 is down-regulated in a dose-dependent manner
Tyrosine hydroxylase; [3]
  Expression of striatum tyrosine hydroxylase, compared with the levodopa treatment group: superior to that in the levodopa treatment group
Tyrosine hydroxylase; Axitinib 10 mg/kg 7 days, levodopa 20 mg/kg 10 days
  Expression of striatum tyrosine hydroxylase: significantly up-regulated
Claudin-5/Occludin
  Expression of tight junction protein Claudin-5/Occludin: the degree to which pathological blood-brain barrier tight junction protein of Claudin-5/Occludin is down-regulated is reduced
[1]; [3]
  Dyskinesia (movement time), Axitinib compared with levodopa: no difference in their efficacy
[1]; Axitinib 10 mg/kg 7 days, levodopa 20 mg/kg 10 days, vs Parkinson's control
  Dyskinesia (movement time within 2 minutes): significantly alleviated
[2]
  FITC-dextran transmembrane transport (blood-brain barrier permeability): blood-brain barrier permeability is reduced
